Laboratory results published in ChEMBL document CHEMBL1158121, “Antihyperglycemic activity and chemical constituents of Eysenhardtia platycarpa” (2006).

Test system: Rattus norvegicus
Experiment: Antihyperglycemic activity in Streptozotocin-induced diabetic Wistar rat assessed as decrease in blood glucose level at 31 mg/kg, po after 7 hrs
Assay type: functional
Set-up: scale not given: the % may be the effect or the level left

CC(=O)O[C@H]1CC[C@]2(C)[C@H]3CC=C4[C@@H]5CC(C)(C)CC[C@]5(C(=O)O)CC[C@@]4(C)[C@]3(C)CC[C@H]2C1(C)C [ACETYL OLEANOLIC ACID]
Activity: -26.3%
